Measurements published in PubChem BioAssay (NCI).
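How tested: cells in 96-well plates exposed to compound for 48 hours at five concentrations. Abbreviation: GI50, concentration required for 50% inhibition of growth. At the TGI there is no net growth.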

Assays:
Test in all cases: growth of human tumour cells (NCI), 48 h
[1] = tested on: ACHN renal
[2] = tested on: NCI-H460 lung
[3] = tested on: MCF7 breast
[4] = tested on: OVCAR-4 ovarian
[5] = tested on: OVCAR-5 ovarian
[6] = tested on: PC-3 prostate
[7] = tested on: SNB-75 CNS
[8] = tested on: HCT-116 colon
[9] = tested on: HOP-62 NSCLC
[10] = tested on: COLO 205 colon
[11] = tested on: SNB-19 CNS
[12] = tested on: SR leukemia
[13] = tested on: U251 CNS
[14] = tested on: CCRF-CEM leukemia
[15] = tested on: RPMI-8226 leukemia
[16] = tested on: UO-31 renal
[17] = tested on: HT29 colon
[18] = tested on: A498 renal
[19] = tested on: SK-OV-3 ovarian
[20] = tested on: SW-620 colon
[21] = tested on: SF-268 CNS
[22] = tested on: SF-539 CNS
[23] = tested on: HOP-92 NSCLC
[24] = tested on: IGROV1 ovarian
[25] = tested on: SN12C renal
[26] = tested on: HL-60(TB) leukemia
[27] = tested on: NCI/ADR-RES ovarian
[28] = tested on: OVCAR-8 ovarian
[29] = tested on: SK-MEL-5 melanoma
[30] = tested on: KM12 colon
[31] = tested on: BT-549 breast
[32] = tested on: 786-0 renal
[33] = tested on: TK-10 renal
[34] = tested on: MDA-MB-231 breast
[35] = tested on: MOLT-4 leukemia
[36] = tested on: UACC-257 melanoma
[37] = tested on: NCI-H226 lung
[38] = tested on: UACC-62 melanoma
[39] = tested on: HCC-2998 colon
[40] = tested on: SK-MEL-2 melanoma
[41] = tested on: MALME-3M melanoma
[42] = tested on: SK-MEL-28 melanoma
[43] = tested on: LOX IMVI melanoma
[44] = tested on: M14 melanoma
[45] = tested on: EKVX NSCLC
[46] = tested on: NCI-H23 lung
[47] = tested on: RXF 393 renal
[48] = tested on: T-47D breast
[49] = tested on: MDA-MB-435
[50] = tested on: SF-295 CNS
[51] = tested on: A549 NSCLC
[52] = tested on: NCI-H522 lung
[53] = tested on: HS 578T breast
[54] = tested on: K-562 leukemia
[55] = tested on: HCT-15 colon
[56] = tested on: DU-145 prostate

Oc1ccc(CSc2nnc(-c3ccncc3)o2)c2cccnc12
GI50 [1]: 2.28 µM
TGI [1]: 8.31 µM
GI50 [2]: 0.397 µM
TGI [2]: > 100 µM
GI50 [3]: 0.403 µM
TGI [3]: > 100 µM
GI50 [4]: 3.19 µM
TGI [4]: > 100 µM
GI50 [5]: 3.54 µM
TGI [5]: > 100 µM
GI50 [6]: 0.626 µM
TGI [6]: 9.34 µM
GI50 [7]: 1.52 µM
TGI [7]: 25.5 µM
GI50 [8]: 0.68 µM
TGI [8]: > 100 µM
GI50 [9]: 2.37 µM
TGI [9]: > 100 µM
GI50 [10]: 4.32 µM
TGI [10]: > 100 µM
GI50 [11]: 1.47 µM
TGI [11]: > 100 µM
GI50 [12]: 2.21 µM
TGI [12]: > 100 µM
GI50 [13]: 0.494 µM
TGI [13]: > 100 µM
GI50 [14]: 2.53 µM
TGI [14]: > 100 µM
GI50 [15]: 0.524 µM
TGI [15]: 4.02 µM
GI50 [16]: 1.83 µM
TGI [16]: > 100 µM
GI50 [17]: 3.46 µM
TGI [17]: > 100 µM
GI50 [18]: 2.64 µM
TGI [18]: 9.52 µM
GI50 [19]: 3.11 µM
TGI [19]: 9.81 µM
GI50 [20]: 1.37 µM
TGI [20]: > 100 µM
GI50 [21]: 2.18 µM
TGI [21]: > 100 µM
GI50 [22]: 2.18 µM
TGI [22]: > 100 µM
GI50 [23]: 0.412 µM
TGI [23]: 2.73 µM
GI50 [24]: 3.33 µM
TGI [24]: > 100 µM
GI50 [25]: 0.619 µM
TGI [25]: 6.13 µM
GI50 [26]: 2.9 µM
TGI [26]: 50.7 µM
GI50 [27]: 3.95 µM
TGI [27]: > 100 µM
GI50 [28]: 0.62 µM
TGI [28]: > 100 µM
GI50 [29]: 1.03 µM
TGI [29]: 2.63 µM
GI50 [30]: 3.9 µM
TGI [30]: > 100 µM
GI50 [31]: 1.71 µM
TGI [31]: > 100 µM
GI50 [32]: 3.81 µM
TGI [32]: 70.2 µM
GI50 [33]: 3.36 µM
TGI [33]: > 100 µM
GI50 [34]: 1.89 µM
TGI [34]: 4.87 µM
GI50 [35]: 3.71 µM
TGI [35]: > 100 µM
GI50 [36]: 2.61 µM
TGI [36]: 8.38 µM
GI50 [37]: 3.6 µM
TGI [37]: > 100 µM
GI50 [38]: 2.87 µM
TGI [38]: > 100 µM
GI50 [39]: 3.38 µM
TGI [39]: > 100 µM
GI50 [40]: 2.11 µM
TGI [40]: 7.66 µM
GI50 [41]: 2.03 µM
TGI [41]: 6.88 µM
GI50 [42]: 4.37 µM
TGI [42]: > 100 µM
GI50 [43]: 0.864 µM
TGI [43]: > 100 µM
GI50 [44]: 2.11 µM
TGI [44]: > 100 µM
GI50 [45]: 2.74 µM
TGI [45]: > 100 µM
GI50 [46]: 0.951 µM
TGI [46]: > 100 µM
GI50 [47]: 2.41 µM
TGI [47]: > 100 µM
GI50 [48]: 3.08 µM
TGI [48]: > 100 µM
GI50 [49]: 0.613 µM
TGI [49]: > 100 µM
GI50 [50]: 1.75 µM
TGI [50]: 8.32 µM
GI50 [51]: 0.767 µM
TGI [51]: > 100 µM
GI50 [52]: 0.558 µM
TGI [52]: > 100 µM
GI50 [53]: 0.751 µM
TGI [53]: 58.7 µM
GI50 [54]: 0.622 µM
TGI [54]: > 100 µM
GI50 [55]: 2.74 µM
TGI [55]: > 100 µM
GI50 [56]: 0.779 µM
TGI [56]: > 100 µM
